Source: patent US20240279174A1, “ANTIBIOTICS COMPRISING LPXH-TARGETING COMPOUNDS AND METHODS OF MAKING AND USING THE SAME” (Duke University, priority 2019, published 2024)
Values after ≈ are worked out from the molar mass of the structure shown. Like-named read-outs stand apart in the source and are kept apart here.

Key:
[1] = target: K. pneumoniae LpxH (KpLpxH) (Klebsiella pneumoniae subsp. pneumoniae (strain ATCC 700721 / MGH 78578), UniProt A6T5R0); assay: LpxE-coupled malachite green LpxH activity assay (KpLpxH inhibition); format: biochemical; settings: for remaining activity at 0.1 µM / inhibition at 0.1 µM / Percentage Activity of KpLpxH (vi/v0): 0.1 μM inhibitor; for remaining activity at 0.1 µM / Percentage Activity of KpLpxH (vi/v0): normalized against KpLpxH activity in 10% DMSO; for remaining activity at 0.1 µM: read-out: Percentage Activity of KpLpxH (vi/v0); for inhibition at 0.1 µM: read-out: Percentage Inhibition of KpLpxH
Procedure: Evaluation of LpxH inhibition by analogs: After completing the synthesis of sulfonyl piperazine compounds with various forms of linkers, the KpLpxH inhibition was biochemically characterized by these analogs at 0.1 μM using the nonradioactive, colorimetric malachite green assay that we had previously reported. […] Such an enhanced potency requires the presence of the hydroxamate group, as its substitution with a carboxylate group in compound 7 reduced the compound activity (vi/v0=30±6%).
The LpxE-coupled LpxH activity assay was conducted as described previously using the GB1-K. pneumoniae LpxH-His10 fusion protein. Briefly, two reaction mixtures were prepared. Mixture 1 contains 20 mM Tris-HCl (pH 8.0), 0.5 mg/mL BSA, 0.02% Triton X-100, 1 mM MnCl2, 1 mM DTT, 10% DMSO, and 200 µM substrate (UDP-DAGn), and mixture 2 is comprised of the same buffer, but instead of substrate, contains both LpxH (20 ng/ml) and 2× inhibitor. These mixtures were then pre-incubated at 37° C. for 10 min. To initiate the reaction, an equal volume of the LpxH mixture (mixture 2) was added to the substrate mixture (mixture 1) at 37° C. The final reaction solution contains 100 μM substrate, 10 ng/ml enzyme, and 1× inhibitor. At the desired reaction time points, an aliquot of 20 μL reaction mixture was removed and added to a well in 96-well half-area plate containing 5 mM EDTA (final concentration) to quench the LpxH reaction. Purified Aquifex aeolicus LpxE was then added to a final concentration of 5 μg/mL. The plate was incubated at 37° C. for 30 min followed by addition of formic acid to a final concentration of 3.75 M to quench the LpxE reaction. The malachite green reagent (Sigma Aldrich, catalog MAK307) was diluted 5-fold into the solutions, and the plate was incubated for 30 min at room temperature before the absorbance at 620 nm was measured. All measurements were done in triplicates, and standard error (S.E.) was calculated.

[2] = test system: K. pneumoniae (ATCC 10031); assay: MIC assay (broth microdilution), K. pneumoniae; format: cell-based; settings: Klebsiella pneumoniae, ATCC10031
Procedure: The MIC assay protocol was adapted from the broth microdilution methods described by the National Committee for Clinical Laboratory Standards using 96-well plates as described previously. In brief, overnight bacterial cultures were diluted to an OD600 of 0.006 in cation-adjusted Mueller-Hinton medium containing 7% DMSO and incubated at 37° C. for 22 h in the presence of varying concentrations of inhibitors. Following overnight incubation, each well is treated with 10 μL of 3-(4,5-dimethylthiazol-2-yl)-2,5-diphenyltetrazolium bromide (MTT, 5 mg/mL) for 3 h. Finally, the culture is solubilized by addition of 2-propanol, and the results are read by taking the difference of the UV reading at both 570 and 690 nm. MIC values were reported as the lowest compound concentration that inhibited bacterial growth. The baseline for inhibited cell growth was determined to be <4× the average control reading due to the baseline optical density of the initial starting bacterial culture.

[3] = Table 5, read-out: IC50: Average
[4] = Table 4, read-out: MIC - K. pneumoniae (ATCC 10031)
[5] = K. pneumoniae (ATCC 10031), in vitro, read-out: MIC

SMILES	IC50 [1, 3] [nM]	MIC [2, 4] [µg/mL]	further results
CC(=O)N1CCc2cc(S(=O)(=O)N3CCN(c4cc(F)cc(C(F)(F)F)c4)CC3)ccc21 [JH-LPH-28]	139	3 (≈ 6.36 µM)	–
O=C(CCCCNC(=O)Nc1ccc(S(=O)(=O)N2CCN(c3cc(Cl)cc(C(F)(F)F)c3)CC2)cc1)NO [JH-LPH-41]	73	10.7 (≈ 18.5 µM)	remaining activity at 0.1 µM [1]: 36%; inhibition at 0.1 µM [1]: 64%
CC(=O)n1ccc2cc(S(=O)(=O)N3CCN(c4cc(Cl)cc(C(F)(F)F)c4)CC3)ccc21 [JH-LPH-42]	–	> 64	–
O=C(CCCCNC(=O)N1CCc2cc(S(=O)(=O)N3CCN(c4cc(Cl)cc(C(F)(F)F)c4)CC3)ccc21)NO [JH-LPH-45]	17	18.7 (≈ 30.9 µM)	IC50 [1]: 18 nM; Ki [1]: 7.3 nM; Percentage Activity of KpLpxH (vi/v0) ([1]; listed as 8 (JH-LPH-45)): 18 ± 1%; remaining activity at 0.1 µM [1]: 18 ± 1%; inhibition at 0.1 µM [1]: 82%; MIC [2, 5]: 18.7 µg/mL (≈ 31 µM)
O=C(CCCCCC(=O)N1CCc2cc(S(=O)(=O)N3CCN(c4cc(Cl)cc(C(F)(F)F)c4)CC3)ccc21)NO [JH-LPH-46]	–	–	Percentage Activity of KpLpxH (vi/v0) ([1]; listed as 10 (JH-LPH-46)): 93 ± 7%; remaining activity at 0.1 µM [1]: 93 ± 7%; inhibition at 0.1 µM [1]: 7%
CS(=O)(=O)N1CCc2cc(S(=O)(=O)N3CCN(c4cc(Cl)cc(C(F)(F)F)c4)CC3)ccc21 [JH-LPH-47]	–	> 64	–
CC(=O)N1CCc2cc(S(=O)(=O)N3CCN(c4cc(Br)cc(C(F)(F)F)c4)CC3)ccc21 [JH-LPH-48]	49	> 64	–
CC(=O)N1CCc2cc(S(=O)(=O)N3CCN(c4cc(C)cc(C(F)(F)F)c4)CC3)ccc21 [JH-LPH-49]	152	18.7 (≈ 39.9 µM)	–
O=C(CCCCCNC(=O)Nc1ccc(S(=O)(=O)N2CCN(c3cc(Cl)cc(C(F)(F)F)c3)CC2)cc1)NO [JH-LPH-50]	8	3.33 (≈ 5.62 µM)	Ki [1]: 3.1 nM; Percentage Activity of KpLpxH (vi/v0) ([1]; listed as 13 (JH-LPH-50)): 3 ± 2%; remaining activity at 0.1 µM [1]: 3 ± 2%; inhibition at 0.1 µM [1]: 97%; IC50 ([1]; IC50 curves FIG. 3E/4E, read-out: IC50 of KpLpxH inhibition): 7.7 nM; MIC [2, 5]: 3.3 µg/mL (≈ 5.57 µM)
O=C(O)CCCCCNC(=O)Nc1ccc(S(=O)(=O)N2CCN(c3cc(Cl)cc(C(F)(F)F)c3)CC2)cc1 [JH-LPH-54]	–	–	Percentage Activity of KpLpxH (vi/v0) ([1]; listed as 12 (JH-LPH-54)): 57 ± 3%; remaining activity at 0.1 µM [1]: 57 ± 3%; inhibition at 0.1 µM [1]: 43%
O=C(O)CCCCNC(=O)N1CCc2cc(S(=O)(=O)N3CCN(c4cc(Cl)cc(C(F)(F)F)c4)CC3)ccc21 [JH-LPH-55]	–	–	Percentage Activity of KpLpxH (vi/v0) ([1]; listed as 7 (JH-LPH-55)): 30 ± 6%; remaining activity at 0.1 µM [1]: 30 ± 6%; inhibition at 0.1 µM [1]: 70%
O=C(NCCCCc1cccn(O)c1=S)Nc1ccc(S(=O)(=O)N2CCN(c3cc(Cl)cc(C(F)(F)F)c3)CC2)cc1 [JH-LPH-60]	–	–	Percentage Activity of KpLpxH (vi/v0) ([1]; listed as 15 (JH-LPH-60)): 39 ± 6%; remaining activity at 0.1 µM [1]: 39 ± 6%; inhibition at 0.1 µM [1]: 61%
O=C(NCCn1cc(C(=O)O)nn1)Nc1ccc(S(=O)(=O)N2CCN(c3cc(Cl)cc(C(F)(F)F)c3)CC2)cc1 [JH-LPH-61]	–	> 64	–
O=C(NCCn1cc(C(=O)NO)nn1)Nc1ccc(S(=O)(=O)N2CCN(c3cc(Cl)cc(C(F)(F)F)c3)CC2)cc1 [JH-LPH-62]	–	24 (≈ 38.9 µM)	Percentage Activity of KpLpxH (vi/v0) ([1]; listed as 20 (JH-LPH-62)): 59 ± 7%; remaining activity at 0.1 µM [1]: 59 ± 7%; inhibition at 0.1 µM [1]: 41%
O=C(/C=C/CCCNC(=O)Nc1ccc(S(=O)(=O)N2CCN(c3cc(Cl)cc(C(F)(F)F)c3)CC2)cc1)NO [JH-LPH-64]	–	20 (≈ 33.9 µM)	Percentage Activity of KpLpxH (vi/v0) ([1]; listed as 18 (JH-LPH-64)): 34 ± 7%; remaining activity at 0.1 µM [1]: 34 ± 7%; inhibition at 0.1 µM [1]: 66%
O=C(CCCCCCC(=O)Nc1ccc(S(=O)(=O)N2CCN(c3cc(Cl)cc(C(F)(F)F)c3)CC2)cc1)NO [JH-LPH-65]	13	12 (≈ 20.3 µM)	–
O=C(CC/C=C/CCC(=O)Nc1ccc(S(=O)(=O)N2CCN(c3cc(Cl)cc(C(F)(F)F)c3)CC2)cc1)NO [JH-LPH-66]	–	26.7 (≈ 45.3 µM)	–
O=C(CCCCCCC(O)Cn1cncn1)Nc1ccc(S(=O)(=O)N2CCN(c3cc(Cl)cc(C(F)(F)F)c3)CC2)cc1 (stereo not drawn) [JH-LPH-68]	–	28 (≈ 43.5 µM)	–
O=C(CN1CCOCC1)Nc1ccc(S(=O)(=O)N2CCN(c3cc(Cl)cc(C(F)(F)F)c3)CC2)cc1 [JH-LPH-69]	79	4 (≈ 7.31 µM)	–
O=C(CN1CCOCC1)N1CCc2cc(S(=O)(=O)N3CCN(c4cc(Cl)cc(C(F)(F)F)c4)CC3)ccc21 [JH-LPH-70]	62	10.7 (≈ 18.6 µM)	–
NCC(=O)N1CCc2cc(S(=O)(=O)N3CCN(c4cc(Cl)cc(C(F)(F)F)c4)CC3)ccc21 [JH-LPH-71]	–	8 (≈ 15.9 µM)	–

SMILES	IC50 [1, 3] [nM]	MIC [2, 4] [µg/mL]	further results
CN(C)CC(=O)N1CCc2cc(S(=O)(=O)N3CCN(c4cc(Cl)cc(C(F)(F)F)c4)CC3)ccc21 [JH-LPH-72]	–	> 64	–
NC(=O)N1CCc2cc(S(=O)(=O)N3CCN(c4cc(Cl)cc(C(F)(F)F)c4)CC3)ccc21 [JH-LPH-73]	37	0.67 (≈ 1.37 µM)	–
O=C(CCCn1cc(C(=O)Nc2ccc(S(=O)(=O)N3CCN(c4cc(Cl)cc(C(F)(F)F)c4)CC3)cc2)nn1)NO [JH-LPH-74]	–	> 64	–
NC(=O)N1CCc2cc(S(=O)(=O)N3CCN(c4cc(Cl)cc(C(F)(F)F)c4)CC3)c(F)cc21 [JH-LPH-75]	–	> 64	–
NC(=O)N1CCc2cc(S(=O)(=O)N3CCN(c4cc(Cl)cc(C(F)(F)F)c4)CC3)c(Cl)cc21 [JH-LPH-76]	–	> 64	–
CS(=O)(=O)Nc1ccc(S(=O)(=O)N2CCN(c3cc(Cl)cc(C(F)(F)F)c3)CC2)cc1 [JH-LPH-77]	–	> 64	–
O=C(COCc1ccc2nonc2c1)N1CCc2cc(S(=O)(=O)N3CCN(c4cc(Cl)cc(C(F)(F)F)c4)CC3)ccc21 [JH-LPH-79]	37	–	–
O=C(NO)c1ccc(-c2ccccc2C(=O)Nc2ccc(S(=O)(=O)N3CCN(c4cc(Cl)cc(C(F)(F)F)c4)CC3)cc2)cc1 [JH-LPH-80]	431	–	–
CC(=O)N1CCc2cc(S(=O)(=O)N3CCN(C4CCCCC4)CC3)ccc21 [JH-LPH-81]	–	32 (≈ 81.7 µM)	–
CCOC(=O)c1ccc(N2CCN(S(=O)(=O)c3ccc4c(c3)CCN4C(C)=O)CC2)cc1 [JH-LPH-82]	–	> 64	–
C/C=C/CN1CCN(S(=O)(=O)c2ccc3c(c2)CCN3C(C)=O)CC1 [JH-LPH-83]	–	64 (≈ 176 µM)	–
CCCCN1CCN(S(=O)(=O)c2ccc3c(c2)CCN3C(C)=O)CC1 [JH-LPH-84]	–	32 (≈ 87.6 µM)	–
CC(=O)N1CCc2cc(S(=O)(=O)N3CCN(c4nc(C(F)(F)F)cs4)CC3)ccc21 [JH-LPH-85]	–	12 (≈ 26.1 µM)	–
CC(=O)N1CCc2cc(S(=O)(=O)N3CCN(c4cc(C(F)(F)F)ccn4)CC3)ccc21 [JH-LPH-86]	–	0.125 (≈ 0.275 µM)	–
NC(=O)N1CCc2cc(S(=O)(=O)N3CCN(c4cc(C(F)(F)F)ccn4)CC3)ccc21 [JH-LPH-91]	105	0.125 (≈ 0.274 µM)	–
CC(=O)N1CCc2cc(S(=O)(=O)N3CCN(c4cc(C(F)(F)F)cc(Cl)n4)CC3)ccc21 [JH-LPH-92]	5	0.063 (≈ 0.129 µM)	–
NC(=O)N1CCc2cc(S(=O)(=O)N3CCN(c4cccc(C(F)(F)F)n4)CC3)ccc21 [JH-LPH-94]	–	> 64	–
NCCNC(=O)N1CCc2cc(S(=O)(=O)N3CCN(c4cc(C(F)(F)F)cc(Cl)n4)CC3)ccc21 [JH-LPH-95]	–	4 (≈ 7.51 µM)	–
NCCCNC(=O)N1CCc2cc(S(=O)(=O)N3CCN(c4cc(C(F)(F)F)cc(Cl)n4)CC3)ccc21 [JH-LPH-98]	24	–	–
NCCCCNC(=O)N1CCc2cc(S(=O)(=O)N3CCN(c4cc(C(F)(F)F)cc(Cl)n4)CC3)ccc21 [JH-LPH-99]	11	–	–
